Consider 1 molecule from patent publication EP3892734B1, “SCREENING METHODS AND THERAPEUTIC APPLICATIONS BASED ON BACTERIAL MOTILITY INHIBITION” (Ludwig-Maximilians-Universität München, priority 2020, dated 2021).

“Also recorded” adds a separate entry of the source.

Series [1] can be described thus: minimal toxic dose (MTD) testing in mice. The series is classed as in vivo. The conditions noted are these: oral, up to 60 mg/kg/day, listed as BL2. How it is done:
(§1) The active compounds BL1 and BL2, which were chosen to be tested in a preclinical model, were initially tested for toxicity in the mouse model by […] (MTD) testing. The MTD testing (MTD Tox56000 protocol, Eurofins Panlabs) was performed according to international standards, as will be briefly outlined in the following: Three mice were dosed with the compounds at each intended dose. BL1 active compound was prepared in a suitable stock concentration in 5% DMSO, or 5% DMSO, 10% Solutol, 85% PBS (for the 40 and 60 mg/kg/day), and dosed at 10, 30, 40, or 60 mg/kg/day by intraperitoneal injection (125 µl for each dose). BL2 active compound was dosed orally, at 10 mg/kg/day, 30 mg/kg/day, or 60 mg/kg/day, diluted in 5% DMSO, 2.5% carboxy-methyl-cellulose (CMC), in PBS, also at 125 µl per dose per animal. The dosing in each case started with the lowest dose in the three animals, followed by observation for up to 72 h. Subsequently, the next higher dose was administered to a different set of three mice, etc.. Both compounds to be used subsequently for the in vivo therapeutic administration were verified to be non-toxic to mice below an administered dose of 40 mg/kg per day.

Series [2] has as its system H. pylori N6. In words: vitality / metabolic (respiratory inhibition) counter-screen. In kind it is cell-based, Helicobacter pylori. The conditions noted are these: > 100% indicates no inhibition.
Series [3] in a line: plasma cytokine analysis by Bioplex multiplex bead assay in treated mice. The series is classed as in vivo, C57B/L6 mice. To be noted: chronic mouse infection model, BioRad Bioplex assay. The protocol: Before the infection and at the end of the treatment experiment, mouse blood was taken from the eye vein of a few selected mice (approximately 30 to 100 µl per mouse). The blood plasma was subsequently separated from cells using separation centrifugation devices (Sarstedt Microvette lithium-heparin). Plasma was diluted in Biorad Bioplex assay buffer to one fourth of the initial concentration and measured in the 23-Plex BioPlex bead-based multiplex cytokine assay (Biorad #m60009rdpd) according to the manufacturer's instructions and using the provided standards. Each sample was measured in a total volume of 50 µl in duplicate.

A short description of series [4]: solubility observed when preparing doses for MTD testing. The series is classed as physicochemical. To be noted: dosing preparations for MTD testing. The protocol:
as §1

The test system of series [5] is H. pylori N6. Kind of series: MIC/MBC determination in broth culture. The series is classed as cell-based, Helicobacter pylori. The conditions noted are these: for classical antibacterial activity (growth / metabolic inhibition) against H. pylori: result in words. How it is done:
In order to distinguish compounds having anti-flagellar activity from compounds having classical antibiotic effects (i.e., bacteriostatic and/or bactericidal effects), the test compounds were additionally subjected to MIC/MBC testing. Helicobacter pylori were grown in liquid culture by harvesting bacteria from overnight-grown plates into brain-heart infusion medium (BHI, Oxoid) with 3% yeast extract and 5% horse serum, added to an initial inoculum of OD600 = 0.05. 10 ml of this bacterial suspension were incubated as a preculture in a 50 ml Falcon tube with lid ajar inside of an air-tight incubation jar and a microaerobic atmosphere generated by Merck Anaerocult C gas generating packs at 37°C and shaking with 175 rpm overnight. On the following day, prior to the beginning of the experiment, the OD600 of the liquid culture was routinely below 1, in mid-exponential growth phase.
Next, 200 µl of the bacterial suspension were added per well of a 24-well-plate (Greiner Cellstar #662160) diluted to an initial OD600 of 0.07. Compounds (in DMSO) were added to the sample wells in duplicates in a serial dilution of starting at an upper limit of 256 µg/ml. Pure DMSO was added to all wells for a concentration of 2% DMSO per well. The multiwell plate (with lid) was incubated inside of an incubation jar and a microaerobic atmosphere generated by Merck Anaerocult C sachets at 37°C and shaking with 175 rpm for 24 h. For measurement, the duplicates were pooled after visual inspection, diluted 1:3 in medium and measured in plastic cuvettes as an OD at 600 nm. The detection limit of growth was defined as an OD600 of 0.05. […] This MIC determination method can also be downscaled, further automated and measured in 96- or 384-well plates in a micro-well plate incubator equipped with a gas chamber for microaerobic bacterial incubation.
For evaluation of the "minimum bactericidal concentration" (MBC), bacteria from the MIC experiment were streaked and plated at different serial dilutions on blood agar, including the lowest compound concentration where bacterial growth was still measurable by OD600 (OD600 ≥ 0.05), and three compound concentration levels above (if possible). The blood agar plates were incubated at 37°C in an […], either inside an incubation jar (Oxoid) with an Anaerocult C gas pack (Merck), or in an anaerobic cabinet aerated with a microaerobic gas mix as outlined above (Scholzen).
For evaluation of the MBC, bacteria from the MIC experiment were plated as streaks or in appropriate dilutions on Columbia blood agar plates, using inoculation loops. The plates were incubated at 37°C overnight to detect growth.

As to `Cn1c(CSC(=N)N)c(Cl)c(=O)n1-c1ccccc1` [Active 2], the “toxicity (MTD testing)” value in series [1] is “did not show any toxicity; also recorded: not toxic”. Moreover, the “Metabolic assay (% of control)” value in the series on H. pylori N6 [2] is reported as 102,2 % of control. Also, the plasma cytokine loads entry in series [3] is “No significant change of plasma cytokine loads”. Also, the solubility result in series [4] was “very well soluble”. In addition, in the series with H. pylori N6 [5] (H. pylori), the MIC/MBC is above 256 µg/mL. The molecule also had an MIC with H. pylori N6 [5] (Helicobacter pylori, N6) above 256 µg/mL. Also, the “classical antibacterial activity (growth / metabolic inhibition) against H. pylori” value with H. pylori N6 [5] was “did not inhibit growth or metabolic activity of H. pylori”; in the series on H. pylori N6 [5] (listed as BL2), “not active against H. pylori in a classical antibacterial (antibiotic) manner”.

What is called MIC is the lowest concentration found to suppress growth. A low value points to greater potency.
